{"source": "patent US20250339443A1", "about": "“METHOD FOR TREATING OR PREVENTING CALCIUM RELEASE-ACTIVATED CALCIUM CHANNEL OR DISCOIDIN DOMAIN RECEPTOR 2 RELATED DISORDERS OR CONDITIONS” (LumiSTAR Biotechnology, Inc., priority 2023, published 2025)", "molecular_target": "CRAC channel (Homo sapiens, UniProt Q96D31)", "sequence (Q96D31 whole entry)": "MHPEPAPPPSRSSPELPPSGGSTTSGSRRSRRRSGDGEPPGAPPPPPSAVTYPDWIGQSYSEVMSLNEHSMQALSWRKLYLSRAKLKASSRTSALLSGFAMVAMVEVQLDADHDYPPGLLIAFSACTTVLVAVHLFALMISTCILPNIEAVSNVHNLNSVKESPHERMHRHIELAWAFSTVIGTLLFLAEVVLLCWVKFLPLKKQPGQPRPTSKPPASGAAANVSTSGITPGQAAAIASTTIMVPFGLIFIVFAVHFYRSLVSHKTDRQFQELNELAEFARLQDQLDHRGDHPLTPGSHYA", "assay": "SOCE in T cells", "format": "cell-based", "parameters": "endogenous in cells; host or cells: HEK293T", "conditions": "10 μM", "experimental": "The effects of BTP2, WRG-28, Av, and CM-4620 on SOCE were evaluated in T cells (FIG. 4A) and macrophages (FIG. 4E). Cells were cultured on glass-bottom 96-well plates and pretreated with various compounds (10 μM) while being loaded with Fura 2-AM. Subsequently, the cytosolic calcium signal waves were recorded, and the second peak of each wave and rate of entry were assessed. Each bar represents the mean value derived from, 43 to 111 cells for T cells (FIG. 4A), and 52 to 91 cells for macrophages (FIG. 4E). Cytokine induction in T cells and macrophages was conducted as described in the methods section. The levels of cytokines, including IL-2, TNF-α, and IL-6 in the culture medium were assessed using ELISA kits for T cells (FIG. 4B, FIG. 4C, and FIG. 4D) and macrophages (FIG. 4F, FIG. 4G, and FIG. 4H), respectively. Each bar represents the mean±SEM. In all the graphs, *, **, and *** denote p-values of <0.05, 0.01, and 0.001, respectively. […]\nCells cultured on a glass-bottom 96 well plate for 48 hours were treated with different compounds (10 μM) and Fura 2-AM (1 μM) simultaneously in a solution containing 145 mM NaCl, 2.8 mM KCl, 2 mM CaCl2, 2 mM MgCl2, 10 mM D-glucose, 10 mM HEPES, pH 7.4 for 40 minutes in the dark. […] All the images were analyzed by using IGOR Pro software. […]", "data": [{"smiles": "CCNS(=O)(=O)c1ccc(COc2ccc3nc4ccc(=O)cc-4oc3c2)cc1", "note": "[WRG-28]", "values": [{"measurement": "SOCE in T cells", "result": "higher efficacy compared to Av"}]}]}
